Calls of active or inactive are those of the source.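 How the source made its calls: active means tumour findings in long-term animal cancer tests in more than one sex, species or organ; inactive means no tumour finding and more than one negative test.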 Where a SMILES comes first, the peptide text is derived from it.
Assay: DSSTox (CPDBAS) Carcinogenic Potency Database Summary MultiCellCall Results
Settings: animal carcinogenicity bioassays, multi-cell call summary
In short: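 ActivityScore sums 50 for multispecies, 30 for multisex and 20 for multisite positivity. Based on the most positive experiment per sex-species across standardised chronic rodent and other animal cancer tests.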

Row | Structure (SMILES) | outcome
1 | CCOC(N)=O | active; multisite active; multisex active; multispecies active
2 | CCCCC/C=N/N(C)C=O | active; multisite active; multisex active
3 | COc1cc(/C=N/NC(=O)c2ccncc2)ccc1O | active; multisite active
4 | O=C1c2ccccc2CN2C(=O)c3ccccc3CN12 | active; multisite active; multisex active
5 | CCN(CC)C(=O)c1cccc(C)c1 | inactive; multisex inactive; multispecies inactive
6 | CC(C(O)c1ccccc1)N(C)N=O (stereo not given) | active; multisite active
7 | Cc1ccc2c(-c3ccccc3)nc(=O)n(C(C)C)c2c1 | inactive; multisex inactive
8 | Oc1ccc(-c2ccccc2)cc1 | inactive; multisex inactive
9 | Nc1nnc(-c2ccc([N+](=O)[O-])o2)s1 | active; multisite active
10 | COc1ccc(OC)c(/C=C/c2ccc(N)cc2)c1 | active; multisite active; multispecies active
11 | Nc1ccc(Cc2ccc(N)cc2)cc1 | active; multisite active; multisex active; multispecies active
12 | Cc1cc(Cl)ccc1OCC(=O)O | inactive; multisex inactive; multispecies inactive
13 | O=NN1CCNCC1 | active; multisite active; multisex active
14 | CCCCN(CCCC)C(=S)[S-].CCCCN(CCCC)C(=S)[S-].[Zn+2] | inactive; multisex inactive
15 | CC(=O)CN(CC(C)=O)N=O | active; multisite active; multisex active
16 | Cc1cc(N=Nc2c(O)ccc3ccccc23)c(S(=O)(=O)O)cc1Cl | active; multisite active
17 | Cc1noc(NS(=O)(=O)c2ccc(N)cc2)c1C | inactive; multisex inactive; multispecies inactive
18 | NC(=O)CCCCC(N)=O | inactive; multisex inactive; multispecies inactive
19 | COC(=O)C(C)(C)Oc1ccc(-c2ccc(Cl)cc2)cc1 | active; multisite active; multisex active; multispecies active
20 | COP(=S)(OC)Oc1ccc([N+](=O)[O-])cc1 | inactive; multisex inactive; multispecies inactive
21 | CN(C)NC(=O)CCC(=O)O | active; multisite active; multisex active; multispecies active
22 | Cl | inactive; multisex inactive
23 | CN(C)[C@@H]1C(=O)C(C(N)=O)=C(O)[C@@]2(O)C(=O)C3=C(O)c4c(O)cccc4[C@@](C)(O)[C@H]3C[C@@H]12 | inactive; multisex inactive; multispecies inactive
24 | C=C/C=N/O | inactive; multisex inactive

Row | Structure (SMILES) | outcome
25 | CC1=CC(=O)NS(=O)(=O)O1 | inactive; multisex inactive
26 | NC(=O)NNc1ccccc1 | active; multisex active
27 | C[C@H]([C@H](O)CCC(C)(C)O)[C@H]1CC[C@@]2(O)C3=CC(=O)[C@@H]4C[C@@H](O)[C@@H](O)C[C@]4(C)[C@H]3CC[C@]12C | active; multisite active; multisex active
28 | O=S(O)S(=O)(=O)O | inactive; multisex inactive
29 | C=CCO | inactive; multisex inactive
30 | O=C(O)CCCc1ccc(N(CCCl)CCCl)cc1 | active; multisite active; multisex active; multispecies active
31 | ClC(Cl)(Cl)Cl | active; multisite active; multisex active; multispecies active
32 | c1ccc2cc(Nc3ccc(Nc4ccc5ccccc5c4)cc3)ccc2c1 | inactive; multisex inactive
33 | CCCCC(CC)COC(=O)c1ccccc1C(=O)OCC(CC)CCCC (stereo not given) | active; multisex active; multispecies active
34 | O=NN1CCSCC1 | active; multisite active; multisex active
35 | CN(C)CCOC(C)(c1ccccc1)c1ccccn1 (stereo not given) | active; multisite active; multisex active; multispecies active
36 | C=C1C(CCl)(CCl)C2(Cl)C(Cl)C(Cl)C1(Cl)C2(Cl)Cl (stereo not given) | active; multisex active
37 | CC1SC(C)N(N=O)C(C)S1 (stereo not given) | active; multisite active
38 | c1ccc(OCC2CO2)cc1 (stereo not given) | active; multisex active
39 | O=C(O)c1cc(N=Nc2ccc(S(=O)(=O)Nc3ccccn3)cc2)ccc1O | active; multisite active; multisex active; multispecies active
40 | N=c1ccn2c(n1)O[C@H]1[C@H](O)[C@@H](CO)O[C@H]12 | inactive; multisex inactive
41 | CCCCNC(N)=O | inactive; multisex inactive; multispecies inactive
42 | C=CCOc1ccccc1OCC(O)CNC(C)C (stereo not given) | inactive; multisex inactive; multispecies inactive
43 | CN(C)Nc1nc(-c2ccc([N+](=O)[O-])o2)cs1 | active; multisite active
44 | O=S1(=O)CCCO1 | active; multisite active; multisex active
45 | O=NN(c1ccccc1)c1ccccc1 | active; multisex active
46 | NC(=O)c1cnccn1 | inactive; multisex inactive; multispecies inactive
47 | NNC=O | active; multisex active
48 | O=[N+]([O-])c1cc([N+](=O)[O-])c(Cl)c(Cl)c1Cl | inactive; multisex inactive

Row | Structure (SMILES) | outcome
49 | CN(Cc1cnc2nc(N)nc(N)c2n1)c1ccc(C(=O)N[C@@H](CCC(=O)O)C(=O)O)cc1 | inactive; multisex inactive; multispecies inactive
50 | O[C@@H]([C@H](O)[C@@H](O)CBr)[C@@H](O)CBr | active; multisite active; multisex active; multispecies active
51 | C=CC(OCC)OCC | inactive; multisex inactive
52 | O=S(=O)([O-])[O-].[O]=[V+2] | inactive; multisex inactive; multispecies inactive
53 | Cn1cc(OCC(O)CNC(C)(C)C)c2ccccc2c1=O (stereo not given) | inactive; multisex inactive; multispecies inactive
54 | COC(=O)[C@H](Cc1ccccc1)NC(=O)[C@@H](N)CC(=O)O (H-Asp-Phe-OMe) | inactive; multisex inactive
55 | CC1=CC(=C(c2ccc(N)cc2)c2ccc(N)cc2)C=CC1=N | inactive; multisex inactive; multispecies inactive
56 | O=NO | active; multisite active; multisex active
57 | COc1ccc([N+](=O)[O-])cc1N=Nc1c(O)c(C(=O)Nc2cccc([N+](=O)[O-])c2)cc2ccccc12 | inactive; multisex inactive; multispecies inactive
58 | Oc1c(Cl)cc(Cl)c(Cl)c1Cc1c(O)c(Cl)cc(Cl)c1Cl | inactive; multisex inactive; multispecies inactive
59 | C=C(C)C(=O)Nc1ccc(Cl)c(Cl)c1 | inactive; multisex inactive
60 | C[C@]12CC[C@H]3C(=CCc4cc(OS(=O)(=O)O)ccc43)[C@@H]1CCC2=O | inactive; multisex inactive
61 | OCc1ccco1 | active; multisite active; multispecies active
62 | COc1ccc(C)cc1N | active; multisite active; multisex active; multispecies active
63 | C[C@H](CCC(=O)O)[C@H]1CC[C@H]2[C@@H]3CC[C@@H]4C[C@H](O)CC[C@]4(C)[C@H]3CC[C@]12C | inactive; multisex inactive; multispecies inactive
64 | O=[N+]([O-])c1ccc(Cl)c([N+](=O)[O-])c1 | inactive; multisex inactive; multispecies inactive
65 | O=[N+]([O-])c1cc([As](=O)(O)O)ccc1O | inactive; multisex inactive; multispecies inactive
66 | OC[C@@H](O)[C@H]1O[C@@H]2O[C@H](C(Cl)(Cl)Cl)O[C@@H]2[C@H]1O | inactive; multisex inactive
67 | O=[N+]([O-])c1ccc(NCCO)c(OCCO)c1 | inactive; multisex inactive; multispecies inactive
68 | O=[N+]([O-])c1ccc2ncccc2c1 | inactive; multisex inactive
69 | CC(=O)NNC(=O)c1ccncc1 | active; multisex active
70 | O=NN1CCC[C@H]1C(=O)O | inactive; multisex inactive

From PubChem BioAssay AID1205 (EPA DSSTox, 2008)
